# Entries after “also recorded” stand apart in the source; their conditions may differ.
# Tests used:
# [1] = molecular target: T1, β-N-acetylhexosaminidase A (Homo sapiens, UniProt P06865+P07686); test: β-N-acetylhexosaminidase A inhibition with MUG and MUGS substrates (FIGS. 13A, 13B); assay type: biochemical
# α-glucosidase = test: Inhibition of α-glucosidase, kinetic analysis by capillary zone electrophoresis; assay type: biochemical; details: Saccharomyces sp. enzyme, CZE
# Experimental: (§1) Initially, the total volume of assay solution was reduced because this is the only way to reduce the amount of enzyme and substrate used in the assay. The 96-well microtiter plate with a round bottom was used for the assay, and each well was sealed with tape. Thus, the assay was examined and carried out in a total volume of as little as 20 μL containing 1.76 mU of a glycosidase such as β-N-acetylhexosaminidase P. The electrophoresis was carried out using 50 mM borate buffer (pH 9.2˜10.2) as the electrolyte and the progress was monitored at 37° C. The injected volume of approximately 38.4 nL of a reaction mixture contained as little as 3.8 pmol of the substrate p-nitrophenyl (PNP) glycoside, thus the amount of PNP detected was less than 10^−12 mol. The peak corresponding to the p-nitrophenol, which appeared at around 6.5 min. in these conditions, was monitored at 405 nm.
# (§2) The inhibition studies of compounds 1–9 against α- and β-glucosidases (from Saccharomyces sp. and sweet almond, respectively) were carried out. PNP-glycosides of the parent sugars were used as the substrates throughout the assay. The apparent Km and Vmax values for each substrate were calculated from the double-reciplocal plot of standard 1/v −1/[substrate] curve.^18 The Ki values were determined from a replot of the slopes of Lineweaver-Burk plots vs. the inhibitor concentrations.
# Kinetic analysis of α-glucosidase: To a 1-mL disposable cuvette was added 950 μL of 0.1 M phosphate buffer (pH 7.0) solution, 20 μL of inhibitor solution, and 20 μL of 20 mM p-nitrophenyl-α-D-glucopyranoside solution. The solution was well mixed and warmed at 37° C. for 5 min, then 20 μL of the enzyme solution in 10 mM phosphate buffer (pH 7.0) containing 0.2% of BSA was added. The reaction was monitored at 400 nm on Beckmann DU-70 spectrophotometer for 15 seconds, and the initial rate of hydrolysis was calculated. The same procedure was repeated with three other substrate concentrations. After the initial rates were accumulated, the corresponding Lineweaver-Burk plot at that inhibitor concentration was constructed.
# (§3) Condition of capillary zone electrophoresis: Assays were performed on a Waters Quanta 4000E capillary electrophoresis system, which was equipped with a 53 cm×75 μm fused i.d. silica capillary. Detection was carried out by on-column measurement of u.v. absorption at 405 nm at 7.5 cm from the cathode. The capillary used was pretreated or regenerated with 0.1 M KOH (2 min) and elution buffer before each injection. Samples were loaded by means of hydrostatic pressure at 10 cm height for 30 sec (ca 38.4 nl). […] Pherograms were recorded on Millennium 2010 system from Millipore Corp. […]
# β-glucosidase = test: Inhibition of β-glucosidase, kinetic analysis by capillary zone electrophoresis; assay type: biochemical; details: sweet almond enzyme, CZE
# Experimental: as §1, §2
# Kinetic analyssis of β-glucosidase: To a 1-mL disposable cuvette was added 950 μL of 0.1 M acetate buffer (pH 5.0) solution, 20 μL of inhibitor solution, and 20 μL of 20 mM p-nitrophenyl-β-D-glucopyranoside solution. The solution was well mixed and warmed at 37° C. for 5 min, then 20 μL of the enzyme solution, which was dissolved in ice-cold Tris-HCl buffer (pH 7.8) and diluted with 10 mM phosphate buffer (pH 7.0) containing 0.2% of BSA, was added. The reaction was monitored at 400 nm on a Beckmann DU-70 spectrophotometer for 15 seconds, and the initial rate of hydrolysis was calculated. The same procedure was repeated with three other substrate concentrations. After the initial rates were accumulated, the corresponding Lineweaver-Burk plot at that inhibitor concentration was constructed.
# as §3
# [2] = molecular target: T1, β-N-acetylhexosaminidase A; test: Inhibition of β-N-acetylhexosaminidase A from human placenta; assay type: biochemical; parameters: Kinetic analysis of β-N-acetylhexosaminidase from human placenta; purchased Sigma Chemical Co. (St. Louis, Mo., USA); host or cells: human placenta; details: β-N-acetylhexaoaminidases A from human placenta
# Experimental: Condition of capillary zone electrophoresis: Assays were performed on a Waters Quanta 4000E capillary electrophoresis system, which was equipped with a 53 cm×75 μm fused i.d. silica capillary. Detection was carried out by on-column measurement of u.v. absorption at 405 nm at 7.5 cm from the cathode. The capillary used was pretreated or regenerated with 0.1 M KOH (2 min) and elution buffer before each injection. Samples were loaded by means of hydrostatic pressure at 10 cm height for 30 sec (ca 38.4 nl). Electrophoresis was performed at 20 kV using 50 mM sodium borate (pH 9.2 for β-N-Acetylglucosaminidase assays, pH 9.4 for β-glucosidase assays, pH 10.2 for α-glucosidase and β-N-acetylhexosaminidase assay) as electrolyte at a constant temperature of 37° C. Pherograms were recorded on Millennium 2010 system from Millipore Corp.
# Kinetic analysis of β-N-acetylhexosaminidase from human placenta: Incubations were performed in a total volume of 20 μL. Unless otherwise stated, reaction mixtures contained 100 mM citrate buffer (pH 4.5), various amount of p-NP-GlcNAc (0.1–1.1 mM) and various amount of inhibitor with 3.35 mU of β-N-acetylhexosaminidase A and 1.76 mU of β-N-acetylhexosaminidase P. After preincubation for 10 min at 37° C., the reaction was started by the addition of β-N-Acetylglucosaminidase and the reaction mixture was incubated for 15 min at 37° C. […]
# GAGs = test: Whole cell assay of GAG concentration; assay type: cell-based
# β-N-acetylhexoaminidases = test: Intracellular β-N-acetylhexoaminidases activity (FIG. 12); assay type: cell-based
# [3] = molecular target: β-N-acetylglucosaminidase; test: Inhibition of β-N-acetylglucosaminidase, kinetic analysis by CZE; assay type: biochemical; details: β-N-acetylglucosaminidase from bovine kidney, substrate PNP-GlcNAc, replot of Lineweaver-Burk slopes
# Experimental: as §1
# as §2, with “concentrations. […]” for “concentrations.”
# [4] = molecular target: β-glucosidease from Almond; details: β-glucosidase from Almond, reported by Watson et al.; cited from earlier work
# [5] = molecular target: α-glucosidase from baker's yeast; details: reported by Watson et al.; cited from earlier work
# T1 sequence (P06865 89-529): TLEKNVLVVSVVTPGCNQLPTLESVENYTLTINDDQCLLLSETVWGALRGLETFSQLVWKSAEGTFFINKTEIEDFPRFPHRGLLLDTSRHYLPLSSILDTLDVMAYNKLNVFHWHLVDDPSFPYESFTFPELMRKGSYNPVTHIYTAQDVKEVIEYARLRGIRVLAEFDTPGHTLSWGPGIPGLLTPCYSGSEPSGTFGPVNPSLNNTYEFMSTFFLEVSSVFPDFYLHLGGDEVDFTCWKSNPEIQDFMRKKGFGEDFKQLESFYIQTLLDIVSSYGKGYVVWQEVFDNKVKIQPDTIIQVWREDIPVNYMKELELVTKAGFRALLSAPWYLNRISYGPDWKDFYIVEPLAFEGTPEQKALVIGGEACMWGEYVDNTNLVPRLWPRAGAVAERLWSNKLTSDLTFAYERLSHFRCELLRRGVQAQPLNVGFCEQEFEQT
# T1 sequence (P06865 23-74 limits assumed): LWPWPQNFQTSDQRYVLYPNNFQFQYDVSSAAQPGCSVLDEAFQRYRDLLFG
# T1 sequence (P07686 315-556 limits assumed): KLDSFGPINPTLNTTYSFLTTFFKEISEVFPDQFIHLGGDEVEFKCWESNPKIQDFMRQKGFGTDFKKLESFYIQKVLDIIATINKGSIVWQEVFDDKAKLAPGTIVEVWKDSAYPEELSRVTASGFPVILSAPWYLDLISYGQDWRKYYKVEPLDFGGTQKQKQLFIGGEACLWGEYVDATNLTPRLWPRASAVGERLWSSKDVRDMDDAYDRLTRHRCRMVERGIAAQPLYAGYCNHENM
# T1 sequence (P07686 122-311 limits assumed): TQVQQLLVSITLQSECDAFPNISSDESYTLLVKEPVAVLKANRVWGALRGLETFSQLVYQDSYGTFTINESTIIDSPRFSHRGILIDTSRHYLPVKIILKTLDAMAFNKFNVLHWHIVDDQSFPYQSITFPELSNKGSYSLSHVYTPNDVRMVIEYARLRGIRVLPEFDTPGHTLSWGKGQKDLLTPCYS
# T1 sequence (P07686 50-107 limits assumed): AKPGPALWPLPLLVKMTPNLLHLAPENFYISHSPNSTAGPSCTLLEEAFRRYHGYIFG
compound,measurement,setting,value
"CC1=N[C@@H]2[C@@H](O)[C@H](O)[C@@H](CO)O[C@@H]2S1 [Compound 107, NAG-thioazoline]",inhibition activity towards MUGS compared with MUG,[1],higher inhibition activity to MUG than to MUGS
CC(=O)NC[C@@H](O)[C@H]1N[C@H](CO)[C@@H](O)[C@@H]1O [Compound 6],inhibitory activity against α-glucosidase,α-glucosidase,identical inhibitory activity to 2
same,inhibitory activity against β-glucosidase,β-glucosidase,potent inhibitors; also recorded: identical inhibitory activity to 2
Sulfated NAG-thiozoline [Compound 108],inhibition activity towards MUGS compared with MUG,[1],higher inhibition activity towards the 6-sulfate-4-methyl-umbelliferyl-β-D-N-acetylglucosamine (MUGS) than to 4-methyl-umbelliferyl-β-D-N-acetylglucosamine (MUG)
"CC(=O)NC[C@@H]1[C@@H](O)[C@H](O)[C@@H](CO)N1C [Compound 4, (2R,3R,4R,5R)-N-Methyl-(2-acetamidomethyl-3,4-dihydroxy-5-hydroxymethyl)-pyrrolidine]",Ki,[2],0.024 µM
same,GAG's intracellular concentration,GAGs,increase
same,GAGs' extracellular concentration,GAGs,decrease
same,intracellular β-N-acetylhexaoaminidases activity,β-N-acetylhexoaminidases,dramatically decreased
same,Ki,[3],0.11 µM
"OC[C@H]1N[C@H](CNC[C@H]2N[C@H](CO)[C@@H](O)[C@@H]2O)[C@@H](O)[C@@H]1O [Compound 9, N,N-di-{[(2R,3R,4R,5R)-(3,4-hydroxy-5-hydroxymethyl)-pyrrolidine]methyl} amine]",inhibitory activity against α-glucosidase,α-glucosidase,as effective as 2
same,inhibitory activity against β-glucosidase,β-glucosidase,inhibitory activity at the same level as 1 and 7
"OC[C@H](O)[C@H]1N[C@H](CO)[C@@H](O)[C@H]1O [Compound 1, (2R,3S,4R,5R,1′R)-5-hydroxymethyl-3,4-dihydroxy-2-(1′,2′-dihydroxy)ethyl-pyrrolidine]",inhibitory activity against α-glucosidase,α-glucosidase,weak inhibitor
same,inhibitory activity against β-glucosidase,β-glucosidase,weak inhibitor
"OC[C@H](O)[C@@H]1N[C@H](CO)[C@@H](O)[C@@H]1O [Compound 2, (1′R,2S,3R,4R,5R)-3,4-dihydroxy-2-[1′,2′-dihydroxy-ethyl]-5-hydroxymethyl-pyrrolidine]",Ki,[4],4000 µM
same,Ki,[5],85000 µM
same,inhibitory activity against α-glucosidase,α-glucosidase,potent inhibitory activities
same,inhibitory activity against β-glucosidase,β-glucosidase,potent inhibitory activities
